Results as given in US6514975B1, “Anti-inflammatory piperazinyl-benzyl-tetrazole derivatives and intermediates thereof” (Pfizer Inc, priority 1997, dated 2003).

Experiments:
[1] = target: T1, delta opioid receptor, mouse vas deferens (MVD)(δ) (Mus musculus, UniProt P32300); experiment: delta opioid agonist activity in mouse vas deferens (inhibition of electrically-induced contractions); conditions: isolated mouse vas deferens; inhibition of electrically-induced contractions in the presence of 300 nM mu-selective antagonist CTOP; measure of δ agonism
T1 construct: tissue Charles River; host or cells: isolated mouse vas deferens (DC1 strain)
T1 sequence (P32300 whole entry): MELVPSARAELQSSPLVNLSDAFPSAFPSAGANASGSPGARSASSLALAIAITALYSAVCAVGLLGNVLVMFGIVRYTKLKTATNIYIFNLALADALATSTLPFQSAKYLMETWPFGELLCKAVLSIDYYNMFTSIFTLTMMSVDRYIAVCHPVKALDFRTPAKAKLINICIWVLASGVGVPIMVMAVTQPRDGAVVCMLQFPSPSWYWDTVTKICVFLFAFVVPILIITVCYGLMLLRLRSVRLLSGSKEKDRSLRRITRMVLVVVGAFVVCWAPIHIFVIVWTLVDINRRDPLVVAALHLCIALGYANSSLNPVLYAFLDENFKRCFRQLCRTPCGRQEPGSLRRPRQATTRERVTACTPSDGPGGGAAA
Experimental: Opioid (delta, mu and kappa) activity was studied in two isolated tissues, the mouse vas deferens (MVD)(δ) and the guinea-pig myentric plexus with attached longitudinal muscle (GPMP)(μ and κ).
MVD (DC1 strain, Charles River, 25-35 g) were suspended in 15 ml organ baths containing Mg^++-free Krebs' buffer of the following composition (mM): NaCl, 119; KCl, 4.7; NaHCO3, 25; KH2PO4, 1.2; CaCl2, 2,5 and glucose, 11. The buffer was gassed with 95% O2 and 5% CO2. The tissues were suspended between platinum electrodes, attached to an isometric transducer with 500 mg tension and stimulated with 0.03 Hz pulses of 1-msec pulse-width at supramaxinal voltage. IC50 values were determined by the regression analysis of concentration-response curves for inhibition of electrically-induced contractions in the presence of 300 nM of the mu-selective antagonist CTOP. This test is a measure of δ agonism.
The delta opioid agonist activity of a number of compounds were determined in mouse vas deferens (as described above) with the following results: […]

| melting point [°C] | Compound | IC50 [1] [nM] |
| --- | --- | --- |
| – | C=CCN1C[C@H](C)N([C@H](c2ccc(-c3nnn(CCCCC(=O)O)n3)cc2)c2cccc(O)c2)C[C@H]1C [Example 42, (+)-5-(5-{4-[(R)-α-(2(S),5(R)-4-Allyl-2,5-dimethyl-1-piperazinyl)-3-hydroxybenzyl]phenyl}-2-tetrazolyl)valeric Acid] | 0.316 |
| 137 to 140 | C=CCN1C[C@H](C)N([C@H](c2ccc(-c3nnn(CCOCC(=O)O)n3)cc2)c2cccc(O)c2)C[C@H]1C | – |
| – | C[C@@H]1CN([C@H](c2ccc(-c3nnn[nH]3)cc2)c2cccc(O)c2)[C@@H](C)CN1Cc1ccccc1 [Example 4, (−)-5-{4-[(R)-α-(2(S),5(R)-4-benzyl-2,5-dimethyl-1-piperazinyl)-3-hydroxybenzyl]phenyl}-1H-tetrazole] | 0.0126 |
| – | C=CCN1C[C@H](C)N([C@H](c2ccc(-c3nnn[nH]3)cc2)c2cccc(O)c2)C[C@H]1C [Example 1, (+)-5-{4-[(R)-α-(2(S),5(R)-4-Allyl-2,5-dimethyl-1-piperazinyl)-3-hydroxybenzyl]phenyl}-1H-tetrazole] | 0.2 |
